From patent US11993573B2, “Chromane-substituted, tetrahydroquinoline-substituted and thiochromane-substituted heteroarotinoids as anti-cancer agents” (THE BOARD OF REGENTS FOR OKLAHOMA STATE UNIVERSITY, priority 2018, dated 2024)
Like-named read-outs stand apart in the source and are kept apart here.

Legend:
[1] = test system: human ovarian cancer cell line A2780; experiment: Growth inhibition assay (CellTiter 96 Non-Rad Cell Proliferation Assay); assay type: cell-based; conditions: for IC50 / Emax: Homo sapiens
Experimental: To illustrate the general activity of the compounds inhibiting growth of human […] ovarian cancer cells, selected compounds were synthesized and evaluated. The compounds were dissolved in DMSO at a concentration of 0.01 M. The human ovarian cancer cell line A2780 was plated in 96-well tissue culture dishes at a concentration of 3000 cells per well in RPMI medium supplemented with 10% fetal bovine serum and a mixture of antibiotics and antimycotics. The next day, the cultures were treated in triplicate with compound concentrations ranging from 2 μM to 8 μM increments. For compound 12, additional experiments were performed with concentrations of 10 μM and a series of two-fold dilutions to 156 nM. Control cultures were treated with DMSO solvent only. After 72 h of incubation, the […] 96® Non-Rad Cell Proliferation Assay (Promega) was used to quantify the remaining metabolically living cells. After subtracting blank values, the optical density (OD) readouts of the assay for the treated cultures were normalized with the average OD of the control cultures. For each compound, the experiment was repeated at least once, resulting in a minimum of 6 dose-response curves. For SHetA2, 24 response curves were available for statistical fitting parameters. A custom program was written in GNU Octave, a free software compatible with Matlab, to fit the dose-response curves with a four-parameter sigmoid function, extracting the IC50 and efficacy (the maximal % growth inhibition) parameters.
To illustrate the useful biological activity of these chroman-substituted and tetrahydroquinoline-substituted heteroarotinoids, the compounds were screened against human […] ovarian cancer cells.

[2] = SHetA2, background; cited from earlier work
[3] = test system: 60 cancer cell lines available from the National Cancer Institute; conditions: SHetA2, background; cited from earlier work
[4] = A2780, 72 h, Table 1, chroman-containing series
[5] = A2780, 72 h, Table 1, maximal % growth inhibition, A2780, 72 h, read-out: Efficacy
[6] = A2780, 72 h, Table 2, tetrahydroquinoline-containing members
[7] = A2780, 72 h, Table 2, maximal % growth inhibition, A2780, 72 h, read-out: Efficacy

| SMILES | IC50 [1, 4] | IC50 [1, 6] | melting point | Emax [1, 5] | Emax [1, 7] | further results |
| --- | --- | --- | --- | --- | --- | --- |
| CC1(C)CC(C)(C)c2cc(NC(=S)Nc3ccc(C(F)(F)F)cc3)ccc2O1 [Compound 2c, 1-(2,2,4,4-Tetramethylchroman-6-yl)-3-(4-(trifluoromethyl)phenyl)thiourea] | 4.7 µM |  | 166 to 168 °C | 22% |  |  |
| CC1(C)CCNc2ccc(NC(=S)Nc3ccc([N+](=O)[O-])cc3)cc21 [Compound 9b, 1-(4,4-Dimethyl-1,2,3,4-tetrahydroquinolin-6-yl)-3-(4-nitrophenyl)thiourea] |  | 7.1 µM | 150 to 152 °C |  | 17.8% |  |
| CC1(C)CC(C)(C)c2cc(NC(=O)Nc3ccc(OC(F)(F)F)cc3)ccc2O1 [Compound 3c, 1-(2,2,4,4-Tetramethylchroman-6-yl)-3-(4-(trifluoromethoxy)phenyl)urea] | 3.6 µM |  | 219 to 221 °C | 88.4% |  | efficacy compared with SHetA2 ([1]; comparison in words, A2780): exceeded the efficacy of SHetA2 |
| CC1(C)CC(C)(C)c2cc(NC(=O)Nc3ccc(C(F)(F)F)cc3)ccc2O1 [Compound 3a, 1-(2,2,4,4-Tetramethylchroman-6-yl)-3-(4-(trifluoromethyl)phenyl)urea] | 4.1 µM |  | 245 to 246 °C | 79% |  |  |
| CC1(C)CCNc2ccc(NC(=O)Nc3ccc([N+](=O)[O-])cc3)cc21 [Compound 9a, 1-(4,4-Dimethyl-1,2,3,4-tetrahydroquinolin-6-yl)-3-(4-nitrophenyl)urea] |  | 6.9 µM | 219 to 220 °C |  | 17.1% |  |

Second part, led by results:

| IC50 [1, 4] | IC50 [1, 6] | melting point | SMILES | Emax [1, 5] | Emax [1, 7] | further results |
| --- | --- | --- | --- | --- | --- | --- |
| 3.17 µM | 3.17 µM |  | CC1(C)CC(C)(C)c2cc(NC(=S)Nc3ccc([N+](=O)[O-])cc3)ccc2S1 [SHetA2, reference compound] | 84.3% | 84.3% | IC50 ([1]; A2780, Table 3, 14 series (thiochroman), A2780): 3.17 ± 0.1 µM; Emax ([1]; A2780, Table 3, 14 series, A2780, read-out: % Efficacy): 84.3 ± 0.7%; IC50 ([1]; A2780, running text, A2780): 3 µM; birth defects in animal studies [2]: does not cause birth defects; skin irritation [2]: no skin irritation; toxicity toward normal tissues [2]: essentially no toxicity toward normal tissues; growth inhibition of cancer cell lines [3]: inhibits the growth of all 60 cancer cell lines |
|  | 13.1 µM | 97 to 99 °C | CN1c2ccc(NC(=S)Nc3ccc(OC(F)(F)F)cc3)cc2C(C)(C)C(O)C1(C)C (stereo not drawn) [Compound 13f, 1-(3-Hydroxy-1,2,2,4,4-pentamethyl-1,2,3,4-tetrahydroquinolin-6-yl)-3-(4-(trifluoromethoxy)phenyl)thiourea] |  | 15.3% |  |
|  | 7.1 µM | 69 to 71 °C | CC1(C)CCNc2ccc(NC(=S)Nc3ccc(OC(F)(F)F)cc3)cc21 [Compound 9d, 1-(4,4-Dimethyl-1,2,3,4-tetrahydroquinolin-6-yl)-3-(4-(trifluoromethoxy)phenyl)thiourea] |  | 24% |  |
|  | 4.4 µM | 145 to 147 °C | CN1c2ccc(NC(=S)Nc3ccc([N+](=O)[O-])cc3)cc2C(C)(C)C(=O)C1(C)C [Compound 11b, 1-(4-Nitrophenyl)-3-(1,2,2,4,4-pentamethyl-3-oxo-1,2,3,4-tetrahydroquinolin-6-yl)thiourea] |  | 91.4% |  |
|  | 4.49 µM | 151 to 153 °C | CN1c2ccc(NC(=S)Nc3ccc([N+](=O)[O-])cc3)cc2C(C)(C)CC1(C)C [Compound 12, 3-(1,2,2,4,4-Pentamethyl-1,2,3,4-tetrahydroquinolin-6-yl)-1-(4-nitrophenyl)thiourea] |  | 91.7% |  |
|  | 7.8 µM | 188 to 189 °C | CN1c2ccc(NC(=O)Nc3ccc(OC(F)(F)F)cc3)cc2C(C)(C)C(O)C1(C)C (stereo not drawn) [Compound 13e, 1-(3-Hydroxy-1,2,2,4,4-pentamethyl-1,2,3,4-tetrahydroquinolin-6-yl)-3-(4-(trifluoromethoxy)phenyl)urea] |  | 23.6% |  |
|  | 6.7 µM | 213 to 215 °C | CN1c2ccc(NC(=O)Nc3ccc(C(F)(F)F)cc3)cc2C(C)(C)C(O)C1(C)C (stereo not drawn) [Compound 13c, 1-(3-Hydroxy-1,2,2,4,4-pentamethyl-1,2,3,4-tetrahydroquinolin-6-yl)-3-(4-(trifluoromethyl)phenyl)urea] |  | 25% |  |
